How the values were obtained:
[1] = biological target: T1, nicotinamide phosphoribosyl transferase (NAMPT) (Homo sapiens, UniProt P43490); assay: NAMPT activity measurement (NMN fluorescence detection); assay type: biochemical; conditions: NAMPT recombinant protein, 10 µM Nam; for IC50: read-out: Evaluation on NAMPT inhibitory
T1 construct: purchased Medical & Biological Laboratories Co., Ltd. (MBL)
Summary of the method: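 Recombinant NAMPT reacted with 10 µM Nam, 0.5 µM PRPP, 2 µM ATP in Tris pH 7.4 buffer with MgCl2, DTT, BSA; product NMN quantified by fluorescence (ex 421/em 480 nm) after derivatization with 2-acetylbenzofuran. Compounds at 3 nM–10 µM; control-normalized signal used for IC50.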

[2] = tested on: primary cultured cells of mouse fetus-derived dorsal root ganglia (DRGs); assay: Suppression of axonal degeneration after axotomy in DRG explant culture; assay type: cell-based; conditions: minimum concentration at which axonal degeneration was suppressed (DI 0.3 or less), 24 hours after axotomy; for minimal effective concentration: Mus musculus, read-out: Evaluation on protection against degeneration
Summary of the method: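 Embryonic ICR mouse DRG explants were cultured 7–8 days in nicotinamide-free neuronal medium with NGF, then axotomized by removing the cell bodies. Compound (100 pM–10 µM final, 0.1% DMSO) was added within 30 min, and neurites were imaged 24 h later. The result is the lowest concentration giving degeneration index ≤0.3.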

hSARM1 = biological target: T2, hSARM1 (Homo sapiens, UniProt Q6SZW1); assay: Human SARM1 activity measurement in HEK293 cells transiently transfected with ΔN-hSARM1 (PC6 fluorescent probe); assay type: cell-based; parameters: expressed in transfected cells; host or cells: HEK293, pcDNA3 expression vector; conditions: inhibition rate; compound 30 µM; PC6 50 µM; HEK293 cells expressing ΔN-hSARM1; approximately 48 hours from transfection; read-out: Evaluation on hSARM1 inhibitory
T2 sequence (Q6SZW1 28-724): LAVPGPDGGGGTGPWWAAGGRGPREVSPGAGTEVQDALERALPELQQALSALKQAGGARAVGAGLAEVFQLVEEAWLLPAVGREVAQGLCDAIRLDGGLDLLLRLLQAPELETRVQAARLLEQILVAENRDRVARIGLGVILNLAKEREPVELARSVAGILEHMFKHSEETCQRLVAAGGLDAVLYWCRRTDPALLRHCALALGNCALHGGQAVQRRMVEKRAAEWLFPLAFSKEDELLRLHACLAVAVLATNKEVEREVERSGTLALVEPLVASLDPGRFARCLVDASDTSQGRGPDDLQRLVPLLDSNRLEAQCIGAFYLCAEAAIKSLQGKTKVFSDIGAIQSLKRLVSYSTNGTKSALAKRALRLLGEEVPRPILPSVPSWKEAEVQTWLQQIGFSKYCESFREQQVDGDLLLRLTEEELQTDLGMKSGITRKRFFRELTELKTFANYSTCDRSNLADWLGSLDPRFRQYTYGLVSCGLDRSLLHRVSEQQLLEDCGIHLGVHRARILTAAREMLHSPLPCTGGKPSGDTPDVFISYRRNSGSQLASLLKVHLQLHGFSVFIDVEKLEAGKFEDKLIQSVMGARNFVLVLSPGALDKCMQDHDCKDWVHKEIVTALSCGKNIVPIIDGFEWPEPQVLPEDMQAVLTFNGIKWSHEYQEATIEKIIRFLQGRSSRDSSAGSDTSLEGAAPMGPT
Summary of the method: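 HEK293 cells in nicotinamide-free DMEM with 5 μM nicotinamide, transiently transfected with mitochondrial-targeting-deleted ΔN-hSARM1; PC6 base-exchange fluorescent probe (50 μM) plus compound (30 μM) added ~8 h post-transfection. Fluorescence (ex 405/em 525 nm) read ~48 h from transfection; inhibition % versus transfected DMSO control, untransfected background subtracted.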

T1 sequence (P43490 whole entry, species assumed): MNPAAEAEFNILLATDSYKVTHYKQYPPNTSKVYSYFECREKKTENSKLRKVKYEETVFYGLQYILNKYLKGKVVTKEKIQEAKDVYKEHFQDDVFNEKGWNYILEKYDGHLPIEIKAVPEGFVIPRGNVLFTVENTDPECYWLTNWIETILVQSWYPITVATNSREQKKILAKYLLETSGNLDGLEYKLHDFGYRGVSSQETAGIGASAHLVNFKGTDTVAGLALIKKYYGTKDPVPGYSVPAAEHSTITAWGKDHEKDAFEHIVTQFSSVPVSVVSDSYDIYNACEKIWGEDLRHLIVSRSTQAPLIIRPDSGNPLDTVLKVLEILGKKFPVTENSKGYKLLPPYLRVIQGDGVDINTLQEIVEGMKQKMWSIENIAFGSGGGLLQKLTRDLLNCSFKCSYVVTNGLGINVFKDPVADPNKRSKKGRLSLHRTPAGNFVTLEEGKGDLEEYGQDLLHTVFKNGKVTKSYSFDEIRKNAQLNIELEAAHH

Evaluation on NAMPT inhibitory [1] | inhibition at 30 µM (hSARM1) [%] | IC50 [1] [nM] | Compound | minimal effective concentration [2] [µM] | Evaluation on protection against degeneration [2]
○ | > 25 | – | O=C(NCCCOCCOCCCNC(=O)c1ccc2ncccc2c1)c1cccnc1 [Compound 188] | ≤ 0.01 | –
○ | > 75 | – | O=C(NCCCCCCCCOCCO)c1cccnc1 [compound 4] | – | A (A ≤ 0.01 µM)
– | > 75 | ≥ 100 | O=C(NCCCCCCCCOCCOCCO)c1cccnc1 [compound 6] | ≤ 0.01 | –
– | > 50 | ≥ 100 | O=C(NCCCCCCCCOCCOCCOCCO)c1cccnc1 [compound 8] | ≤ 0.01 | –
○ | > 10 | – | C#CCOCCOCCNC(=O)c1cccnc1 [compound 11] | 0.01 to 0.1 | –
○ | > 75 | – | O=C(NCCOCCOc1ccc(CNC(=O)c2ccccc2)cc1)c1cccnc1 [compound 13] | 0.01 to 0.1 | –
– | > 75 | ≥ 100 | O=C(NCCCOc1ccc(CNC(=O)c2ccccc2)cc1)c1cccnc1 [compound 15] | ≤ 0.01 | –
– | > 75 | ≥ 100 | O=C(/C=C/c1cccnc1)NCCCOc1ccc(CNC(=O)c2ccccc2)cc1 [compound 16] | ≤ 0.01 | –
– | > 75 | ≥ 100 | O=C(/C=C/c1cccnc1)NCCOCCOc1ccccc1 [compound 17] | ≤ 0.01 | –
– | > 75 | ≥ 100 | COc1cccc(OCCCNC(=O)/C=C/c2cccnc2)c1 [compound 18] | ≤ 0.01 | –
– | > 75 | ≥ 100 | COc1cccc(OCCNC(=O)/C=C/c2cccnc2)c1 [compound 19] | ≤ 0.01 | –
○ | > 75 | – | CC(=O)NCc1ccc(OCCCNC(=O)c2cccnc2)cc1 [compound 20] | 0.01 to 0.1 | –
○ | > 50 | – | CC(=O)NCc1ccc(OCCOCCNC(=O)c2cccnc2)cc1 [compound 21] | ≤ 0.01 | –
– | > 75 | ≥ 100 | CC(=O)NCc1ccc(OCCOCCNC(=O)/C=C/c2cccnc2)cc1 [compound 22] | ≤ 0.01 | –
– | > 75 | ≥ 100 | O=C(NCCOCCOc1cccc(O)c1)c1cccnc1 [compound 27] | 0.01 to 0.1 | –
– | > 75 | ≥ 100 | COc1cccc(OCCOCCNC(=O)/C=C/c2cccnc2)c1 [compound 28] | ≤ 0.01 | –
○ | > 50 | – | COCOc1cccc(OCCOCCNC(=O)c2cccnc2)c1 [compound 30] | 0.01 to 0.1 | –
– | > 75 | ≥ 100 | COC(=O)c1ccc(OCCOCCNC(=O)/C=C/c2cccnc2)cc1 [compound 31] | ≤ 0.01 | –
○ | > 50 | – | COC(=O)c1ccc(OCCOCCNC(=O)c2cccnc2)cc1 [compound 32] | ≤ 0.01 | –
○ | > 75 | – | O=C(NCCOCCOCCNC(=O)c1cccnc1)c1cccnc1 [compound 34] | ≤ 0.01 | –

Evaluation on NAMPT inhibitory [1] | inhibition at 30 µM (hSARM1) [%] | IC50 [1] [nM] | Compound | minimal effective concentration [2] [µM] | Evaluation on protection against degeneration [2]
○ | > 75 | – | O=C(/C=C/c1cccnc1)NCCOCCNC(=O)/C=C/c1cccnc1 [compound 37] | 0.01 to 0.1 | –
○ | > 75 | – | O=C(/C=C/c1cccnc1)NCCCNC(=O)/C=C/c1cccnc1 [compound 39] | ≤ 0.01 | –
○ | > 10 | – | O=C(CNC(=O)c1cccnc1)NCCNC(=O)CNC(=O)c1cccnc1 [compound 40] | 0.1 to 1 | –
○ | > 75 | – | O=C(CNC(=O)c1cccnc1)NCCCCCCNC(=O)CNC(=O)c1cccnc1 [compound 41] | ≤ 0.01 | –
– | > 75 | ≥ 100 | O=C(NCCCCCCNC(=O)c1cncc(O)c1)c1cccnc1 [compound 57] | 0.01 to 0.1 | –
○ | > 25 | – | O=C(/C=C/c1cccnc1)Nc1cccc(NC(=O)/C=C/c2cccnc2)n1 [compound 59] | – | A (A ≤ 0.01 µM)
– | > 75 | ≥ 100 | O=C(/C=C/c1cccnc1)NCc1cccc(NC(=O)/C=C/c2cccnc2)c1 [compound 61] | ≤ 0.01 | –
○ | > 10 | – | O=C(NCCCNS(=O)(=O)c1ccccc1[N+](=O)[O-])c1cccnc1 [compound 63] | 0.1 to 1 | –
– | > 75 | ≥ 100 | O=C(/C=C/c1cccnc1)Nc1ccc(CNC(=O)c2ccccc2)cc1 [compound 64] | ≤ 0.01 | –
○ | > 75 | – | O=C(CCc1ccccc1)NCc1ccc(CNC(=O)c2cccnc2)cc1 [compound 65] | ≤ 0.01 | –
– | > 75 | ≥ 100 | C#CCOc1cncc(C(=O)Nc2ccc(CNC(=O)c3cccnc3)cc2)c1 [compound 67] | ≤ 0.01 | –
○ | > 50 | – | CC(C)(C)OC(=O)NCCCOCCOCCCNC(=O)c1cccnc1 [compound 70] | ≤ 0.01 | –
○ | > 50 | – | CC(C)(C)OC(=O)NCCOCCOCCNC(=O)c1cccnc1 [compound 71] | – | A (A ≤ 0.01 µM)
○ | > 50 | – | CC(C)C(=O)Nc1ccc(CNC(=O)c2cccnc2)cn1 [compound 72] | 0.01 to 0.1 | –
○ | > 50 | – | N#Cc1ccc(C(=O)Nc2ccc(CNC(=O)c3cccnc3)cn2)cc1 [compound 73] | ≤ 0.01 | –
○ | > 75 | – | O=C(/C=C/c1ccccc1)Nc1ccc(CNC(=O)c2cccnc2)cn1 [compound 74] | 0.01 to 0.1 | –
○ | > 75 | – | Cc1ccc(C(=O)Nc2ccc(CNC(=O)/C=C/c3cccnc3)cn2)cc1 [compound 78] | ≤ 0.01 | –
– | > 75 | ≥ 100 | C=Cc1ccc(C(=O)Nc2ccc(CNC(=O)c3cccnc3)cn2)cc1 [compound 80] | ≤ 0.01 | –
○ | > 50 | – | O=C(NCc1ccc(NC(=O)c2ccccc2C(F)(F)F)nc1)c1cccnc1 [compound 81] | 0.01 to 0.1 | –
○ | > 75 | – | O=C(NCc1ccc(NC(=O)c2cccc(C(F)(F)F)c2)nc1)c1cccnc1 [compound 82] | ≤ 0.01 | –

Compound | Evaluation on NAMPT inhibitory [1] | inhibition at 30 µM (hSARM1) [%] | IC50 [1] [nM] | minimal effective concentration [2] [µM] | Evaluation on protection against degeneration [2]
COCOc1cccc(OCCCNC(=O)c2cccnc2)c1 [compound 25] | ○ | > 75 | – | – | B (0.01 µM < B ≤ 0.1 µM)
C/C(=C\C(=O)NCCOCCNC(=O)/C=C(\C)c1cccnc1)c1cccnc1 [compound 43] | – | > 75 | ≥ 100 | ≤ 0.01 | –
O=C(/C=C/c1cccnc1)Nc1ccc(CNC(=O)c2cccnc2)cn1 [compound 75] | – | > 75 | ≥ 100 | ≤ 0.01 | –
